How the values were obtained:
[1] = molecular target: T1, Serine/threonine-protein kinase DCLK1 (Homo sapiens) (UniProt O15075); conditions: at 10 µM
T1 sequence (whole entry): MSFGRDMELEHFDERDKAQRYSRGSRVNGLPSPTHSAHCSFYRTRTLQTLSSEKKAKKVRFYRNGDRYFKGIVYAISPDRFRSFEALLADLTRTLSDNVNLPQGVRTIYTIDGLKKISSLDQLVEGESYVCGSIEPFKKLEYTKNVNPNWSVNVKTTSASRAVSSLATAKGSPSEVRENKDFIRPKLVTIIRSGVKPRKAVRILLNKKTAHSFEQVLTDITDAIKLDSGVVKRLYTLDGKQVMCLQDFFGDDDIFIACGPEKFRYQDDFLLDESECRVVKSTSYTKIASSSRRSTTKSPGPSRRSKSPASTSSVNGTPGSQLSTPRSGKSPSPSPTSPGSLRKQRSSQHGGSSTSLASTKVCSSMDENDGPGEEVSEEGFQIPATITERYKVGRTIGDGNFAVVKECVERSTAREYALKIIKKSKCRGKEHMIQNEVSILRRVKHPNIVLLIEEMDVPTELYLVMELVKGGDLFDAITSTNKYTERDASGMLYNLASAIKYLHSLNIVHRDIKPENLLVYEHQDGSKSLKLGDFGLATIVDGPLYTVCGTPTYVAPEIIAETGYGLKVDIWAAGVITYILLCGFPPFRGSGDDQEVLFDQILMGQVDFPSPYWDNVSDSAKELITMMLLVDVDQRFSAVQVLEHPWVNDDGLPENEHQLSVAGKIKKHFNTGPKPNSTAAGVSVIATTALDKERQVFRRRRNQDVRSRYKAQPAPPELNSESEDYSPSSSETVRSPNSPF

[2] = molecular target: Tyrosine-protein kinase Lyn (Homo sapiens, UniProt P07948); conditions: at 10 µM
Sequence of Tyrosine-protein kinase Lyn (P07948 2-512 limits assumed): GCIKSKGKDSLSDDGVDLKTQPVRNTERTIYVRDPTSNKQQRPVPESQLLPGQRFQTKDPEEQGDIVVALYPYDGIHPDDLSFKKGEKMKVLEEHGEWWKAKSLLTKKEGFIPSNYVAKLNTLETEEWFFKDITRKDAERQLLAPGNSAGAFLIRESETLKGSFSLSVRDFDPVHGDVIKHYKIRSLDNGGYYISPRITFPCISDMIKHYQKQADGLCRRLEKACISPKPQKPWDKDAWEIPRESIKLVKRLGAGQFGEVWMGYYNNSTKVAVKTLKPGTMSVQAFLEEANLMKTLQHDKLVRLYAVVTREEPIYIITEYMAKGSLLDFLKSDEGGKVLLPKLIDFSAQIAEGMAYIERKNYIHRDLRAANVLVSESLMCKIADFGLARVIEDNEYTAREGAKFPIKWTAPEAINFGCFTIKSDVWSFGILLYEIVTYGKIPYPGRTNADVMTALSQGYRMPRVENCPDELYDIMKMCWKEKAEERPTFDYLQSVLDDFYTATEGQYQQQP

[3] = molecular target: Protein kinase C beta type (Homo sapiens, UniProt P05771); assay: Selectivity interaction (Kinase screening (Upstate/Millipore)) EUB0000604a PRKCB
Sequence of Protein kinase C beta type (P05771 2-671 limits assumed): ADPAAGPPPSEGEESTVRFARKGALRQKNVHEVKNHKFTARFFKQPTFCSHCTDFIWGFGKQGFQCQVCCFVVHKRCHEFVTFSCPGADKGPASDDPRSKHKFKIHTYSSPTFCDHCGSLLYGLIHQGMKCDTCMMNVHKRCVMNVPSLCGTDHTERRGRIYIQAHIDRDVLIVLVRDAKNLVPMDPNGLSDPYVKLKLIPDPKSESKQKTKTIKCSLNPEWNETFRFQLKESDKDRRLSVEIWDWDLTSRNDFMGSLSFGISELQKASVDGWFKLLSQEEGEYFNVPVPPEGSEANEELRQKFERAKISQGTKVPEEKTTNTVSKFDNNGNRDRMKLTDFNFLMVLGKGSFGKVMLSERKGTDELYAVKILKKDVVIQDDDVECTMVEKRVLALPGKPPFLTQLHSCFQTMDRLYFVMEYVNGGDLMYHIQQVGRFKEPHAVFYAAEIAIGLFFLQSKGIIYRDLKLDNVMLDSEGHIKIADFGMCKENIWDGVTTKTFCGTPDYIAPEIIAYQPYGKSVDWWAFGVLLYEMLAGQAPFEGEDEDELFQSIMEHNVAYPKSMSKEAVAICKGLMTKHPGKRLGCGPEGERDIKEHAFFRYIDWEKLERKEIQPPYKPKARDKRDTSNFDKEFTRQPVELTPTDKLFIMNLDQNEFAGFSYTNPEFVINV

[4] = molecular target: Serine/threonine-protein kinase PAK 2 (Homo sapiens) (UniProt Q13177); assay: Selectivity interaction (KinomeScan (DiscoverX)) EUB0001049a PAK2; conditions: at 1 µM
Sequence of Serine/threonine-protein kinase PAK 2 (Homo sapiens) (Q13177 whole entry): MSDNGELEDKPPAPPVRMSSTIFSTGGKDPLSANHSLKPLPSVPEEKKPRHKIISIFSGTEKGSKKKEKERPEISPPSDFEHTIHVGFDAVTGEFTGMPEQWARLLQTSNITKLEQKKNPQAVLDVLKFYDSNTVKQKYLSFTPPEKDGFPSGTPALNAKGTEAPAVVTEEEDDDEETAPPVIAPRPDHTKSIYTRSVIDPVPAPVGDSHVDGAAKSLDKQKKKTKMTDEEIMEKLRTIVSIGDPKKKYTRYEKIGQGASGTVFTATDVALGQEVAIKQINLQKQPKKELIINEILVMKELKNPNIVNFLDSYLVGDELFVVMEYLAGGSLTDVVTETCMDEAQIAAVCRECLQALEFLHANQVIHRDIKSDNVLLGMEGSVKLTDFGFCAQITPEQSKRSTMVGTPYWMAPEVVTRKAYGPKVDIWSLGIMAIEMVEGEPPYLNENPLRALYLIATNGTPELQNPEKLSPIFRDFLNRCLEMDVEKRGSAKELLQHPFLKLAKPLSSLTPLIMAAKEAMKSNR

[5] = molecular target: Serine/threonine-protein kinase mTOR (Homo sapiens, UniProt P42345); assay: Selectivity interaction (Ambit KINOMEscan and KiNATiv profiling in Jurkat cells) EUB0000090b MTOR; format: cell-based; conditions: at 1 µM
[6] = molecular target: T2, Serine/threonine-protein kinase ULK3 (Homo sapiens) (UniProt Q6PHR2); assay: Selectivity interaction (Ambit KINOMEscan and KiNATiv profiling in Jurkat cells) EUB0000090b ULK3; format: cell-based; conditions: at 1 µM
T2 sequence (whole entry): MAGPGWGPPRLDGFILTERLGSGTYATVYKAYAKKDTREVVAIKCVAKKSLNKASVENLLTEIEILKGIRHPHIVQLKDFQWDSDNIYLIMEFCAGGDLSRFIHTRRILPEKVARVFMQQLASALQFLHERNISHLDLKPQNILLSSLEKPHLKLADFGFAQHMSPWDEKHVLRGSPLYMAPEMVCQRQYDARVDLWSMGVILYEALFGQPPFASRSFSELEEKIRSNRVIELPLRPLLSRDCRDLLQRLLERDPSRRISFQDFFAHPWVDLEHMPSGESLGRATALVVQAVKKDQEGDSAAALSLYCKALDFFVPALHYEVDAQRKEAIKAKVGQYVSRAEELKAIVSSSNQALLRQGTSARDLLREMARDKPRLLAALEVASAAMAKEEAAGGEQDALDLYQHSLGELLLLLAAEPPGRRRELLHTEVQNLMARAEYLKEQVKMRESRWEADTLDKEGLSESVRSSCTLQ

[7] = molecular target: Glycogen synthase kinase-3 beta (Homo sapiens, UniProt P49841); conditions: at 10 µM
Sequence of Glycogen synthase kinase-3 beta (P49841 whole entry, looked up): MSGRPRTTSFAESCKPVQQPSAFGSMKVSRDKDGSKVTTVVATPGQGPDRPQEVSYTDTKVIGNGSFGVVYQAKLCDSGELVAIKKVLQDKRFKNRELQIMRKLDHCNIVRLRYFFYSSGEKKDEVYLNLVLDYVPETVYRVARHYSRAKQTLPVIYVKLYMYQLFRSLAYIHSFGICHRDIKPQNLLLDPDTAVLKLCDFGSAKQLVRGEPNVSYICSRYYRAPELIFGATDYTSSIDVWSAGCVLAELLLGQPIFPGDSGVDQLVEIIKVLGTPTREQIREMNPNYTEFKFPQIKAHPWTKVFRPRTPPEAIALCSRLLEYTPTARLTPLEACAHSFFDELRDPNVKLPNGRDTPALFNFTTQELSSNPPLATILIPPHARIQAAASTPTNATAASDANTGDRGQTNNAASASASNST

[8] = molecular target: Eukaryotic translation initiation factor 2-alpha kinase 1 (Homo sapiens) (UniProt Q9BQI3); assay: Selectivity interaction (KinomeScan (DiscoverX)) EUB0000595a EIF2AK1; conditions: at 10 µM
Sequence of Eukaryotic translation initiation factor 2-alpha kinase 1 (Homo sapiens) (Q9BQI3 whole entry, the tested form may be a part): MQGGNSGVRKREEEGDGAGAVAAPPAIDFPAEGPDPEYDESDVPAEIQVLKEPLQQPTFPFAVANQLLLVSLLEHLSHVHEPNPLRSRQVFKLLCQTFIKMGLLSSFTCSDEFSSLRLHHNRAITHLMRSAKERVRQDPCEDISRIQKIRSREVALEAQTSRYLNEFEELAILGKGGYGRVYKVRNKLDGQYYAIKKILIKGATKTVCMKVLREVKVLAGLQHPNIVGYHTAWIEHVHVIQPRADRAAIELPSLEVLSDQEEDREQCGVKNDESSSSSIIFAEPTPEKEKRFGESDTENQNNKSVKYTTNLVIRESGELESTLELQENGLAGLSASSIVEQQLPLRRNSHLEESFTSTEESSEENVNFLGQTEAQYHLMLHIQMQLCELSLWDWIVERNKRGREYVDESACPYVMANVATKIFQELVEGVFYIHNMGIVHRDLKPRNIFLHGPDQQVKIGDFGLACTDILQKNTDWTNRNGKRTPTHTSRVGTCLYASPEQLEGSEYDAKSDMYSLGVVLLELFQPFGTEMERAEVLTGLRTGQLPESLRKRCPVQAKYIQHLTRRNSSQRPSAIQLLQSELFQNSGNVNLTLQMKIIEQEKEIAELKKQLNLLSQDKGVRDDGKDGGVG

[9] = molecular target: T3, Discoidin domain-containing receptor 2 (Homo sapiens) (UniProt Q16832); assay: Selectivity interaction (KinomeScan (DiscoverX)) EUB0000229b DDR2; conditions: at 10 µM
T3 sequence (whole entry): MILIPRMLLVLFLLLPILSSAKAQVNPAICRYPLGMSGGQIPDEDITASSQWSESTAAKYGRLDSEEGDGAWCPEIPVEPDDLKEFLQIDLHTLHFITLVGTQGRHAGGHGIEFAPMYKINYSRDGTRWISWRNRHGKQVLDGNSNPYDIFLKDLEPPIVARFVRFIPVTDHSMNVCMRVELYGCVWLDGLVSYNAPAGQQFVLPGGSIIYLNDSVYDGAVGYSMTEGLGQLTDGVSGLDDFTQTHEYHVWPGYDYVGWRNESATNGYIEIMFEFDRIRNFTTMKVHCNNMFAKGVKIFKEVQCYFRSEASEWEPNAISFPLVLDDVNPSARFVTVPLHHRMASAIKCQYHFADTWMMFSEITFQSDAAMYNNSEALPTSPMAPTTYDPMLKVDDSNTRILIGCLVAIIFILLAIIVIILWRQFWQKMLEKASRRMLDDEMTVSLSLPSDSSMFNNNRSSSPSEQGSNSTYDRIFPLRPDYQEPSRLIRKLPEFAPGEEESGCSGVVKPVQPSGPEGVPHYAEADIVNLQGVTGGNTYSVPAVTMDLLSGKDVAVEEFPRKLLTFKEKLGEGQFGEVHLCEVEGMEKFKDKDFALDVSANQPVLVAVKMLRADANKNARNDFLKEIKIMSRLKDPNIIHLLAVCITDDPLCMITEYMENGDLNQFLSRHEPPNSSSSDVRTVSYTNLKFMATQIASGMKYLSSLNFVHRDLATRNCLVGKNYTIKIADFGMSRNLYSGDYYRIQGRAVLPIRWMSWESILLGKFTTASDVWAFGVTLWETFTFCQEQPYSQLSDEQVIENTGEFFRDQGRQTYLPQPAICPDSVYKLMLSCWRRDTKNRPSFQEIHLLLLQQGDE

[10] = test system: Tyrosine-protein kinase ABL1 (Homo sapiens), P00519 [F317L]; assay: Selectivity interaction (KinomeScan (DiscoverX)) EUB0001079a ABL1; conditions: at 1 µM
Sequence of Tyrosine-protein kinase ABL1 (Homo sapiens), P00519 [F317L] (P00519 whole entry F317L): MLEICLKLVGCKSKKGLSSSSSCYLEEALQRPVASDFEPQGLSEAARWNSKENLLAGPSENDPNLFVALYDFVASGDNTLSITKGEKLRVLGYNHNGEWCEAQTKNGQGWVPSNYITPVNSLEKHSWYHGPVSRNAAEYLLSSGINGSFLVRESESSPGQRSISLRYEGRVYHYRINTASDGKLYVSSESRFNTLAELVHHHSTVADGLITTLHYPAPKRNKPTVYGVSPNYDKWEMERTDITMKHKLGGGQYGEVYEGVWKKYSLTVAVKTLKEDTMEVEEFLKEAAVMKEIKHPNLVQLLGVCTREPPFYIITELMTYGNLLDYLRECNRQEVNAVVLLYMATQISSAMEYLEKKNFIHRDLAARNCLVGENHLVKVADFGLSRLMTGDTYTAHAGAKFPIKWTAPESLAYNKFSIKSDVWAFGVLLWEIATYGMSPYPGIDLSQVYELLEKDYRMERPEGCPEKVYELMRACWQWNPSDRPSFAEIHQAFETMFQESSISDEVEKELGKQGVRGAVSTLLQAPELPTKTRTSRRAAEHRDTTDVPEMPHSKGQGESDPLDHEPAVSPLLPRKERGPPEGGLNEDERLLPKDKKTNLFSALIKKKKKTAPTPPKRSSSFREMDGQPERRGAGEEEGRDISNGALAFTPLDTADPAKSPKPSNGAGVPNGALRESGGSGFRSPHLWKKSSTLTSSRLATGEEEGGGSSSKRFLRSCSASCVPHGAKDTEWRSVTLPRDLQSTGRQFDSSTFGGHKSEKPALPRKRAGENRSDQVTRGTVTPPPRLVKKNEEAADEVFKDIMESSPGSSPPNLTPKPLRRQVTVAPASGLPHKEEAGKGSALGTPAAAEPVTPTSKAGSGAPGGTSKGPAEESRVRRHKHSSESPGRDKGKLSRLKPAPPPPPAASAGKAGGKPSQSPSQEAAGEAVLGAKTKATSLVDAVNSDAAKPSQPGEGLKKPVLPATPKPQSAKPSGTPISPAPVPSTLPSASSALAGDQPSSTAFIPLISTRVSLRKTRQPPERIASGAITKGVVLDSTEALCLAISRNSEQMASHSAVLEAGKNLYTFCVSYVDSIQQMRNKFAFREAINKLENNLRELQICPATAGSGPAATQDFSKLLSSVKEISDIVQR

[11] = molecular target: Phosphatidylinositol 4-phosphate 5-kinase type-1 alpha (Homo sapiens) (UniProt Q99755); assay: Selectivity interaction (KinomeScan (DiscoverX)) EUB0000618a PIP5K1A; conditions: at 10 µM
Sequence of Phosphatidylinositol 4-phosphate 5-kinase type-1 alpha (Homo sapiens) (Q99755 whole entry): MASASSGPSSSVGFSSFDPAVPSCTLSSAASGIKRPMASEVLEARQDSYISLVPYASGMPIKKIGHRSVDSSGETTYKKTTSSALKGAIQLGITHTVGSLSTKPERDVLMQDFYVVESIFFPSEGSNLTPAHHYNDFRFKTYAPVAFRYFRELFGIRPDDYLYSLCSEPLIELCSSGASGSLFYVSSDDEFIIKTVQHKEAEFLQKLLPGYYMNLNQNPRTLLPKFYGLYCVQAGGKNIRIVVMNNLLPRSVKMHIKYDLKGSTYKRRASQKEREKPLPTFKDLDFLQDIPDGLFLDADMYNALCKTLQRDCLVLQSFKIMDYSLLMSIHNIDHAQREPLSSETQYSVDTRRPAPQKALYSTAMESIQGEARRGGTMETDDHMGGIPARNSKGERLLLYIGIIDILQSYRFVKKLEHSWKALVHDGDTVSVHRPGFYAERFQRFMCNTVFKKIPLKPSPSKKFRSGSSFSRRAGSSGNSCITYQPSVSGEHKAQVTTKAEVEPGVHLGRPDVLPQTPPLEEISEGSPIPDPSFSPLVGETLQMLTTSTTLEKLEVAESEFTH

`Cc1cc([C@@H](C)Nc2ccccc2C(=O)O)c2nc(N3CCOCC3)cc(=O)n2c1` [AZD-6482] showed a % of control [1] of 78% and a % of control [2] of 99%.
`Cc1cnc(Nc2ccc(F)cc2Cl)nc1-c1c[nH]c(C(=O)N[C@H](CO)c2cccc(Cl)c2)c1` showed a % of inhibition [3] of 4%.
`COc1cc(Nc2nc(C)cc(-c3cnn4nc(OC)ccc34)n2)cc(C(F)(F)F)c1` was tested, and the % of control [4] was 75%.
For `CN(C)C/C=C/C(=O)Nc1ccc(C(=O)N2CCCC(Nc3ncc(Cl)c(-c4c[nH]c5ccccc45)n3)C2)cc1` (stereo unspecified), the % of control [5] was 100% and the % of control [6] was 87%.
For `CCN(CC)CCCCNc1ncc2cc(-c3cc(OC)cc(OC)c3)c(NC(=O)NC(C)(C)C)nc2n1`, the % of control [7] was 100%.
`COCC(=O)NC/C=C/c1ccc2ncnc(Nc3ccc(Oc4ccc(C)nc4)c(C)c3)c2c1` [CP-724714] gave a % of control [8] of 100%.
`COc1cc(N(C)c2ccnc3ccc(C(F)(F)F)cc23)cc(OC)c1OC` was tested, and the % binding [9] was 93%.
For `Nc1cnc(N2CCc3cc(S(=O)(=O)Nc4c(F)cc(Cl)cc4F)cc(N4CCCC4=O)c32)nc1` [TP-020n], the % of control [10] was 78%.
In the case of `O[C@H]1CC[C@H](Nc2ncc3nc(Nc4c(F)cc(F)cc4F)n([C@H]4CCOC4)c3n2)CC1`, the % of control [11] was 93%.

— ChEMBL document CHEMBL5465560, “Selectivity Literature for EUbOPEN Chemogenomic Library” (2024)
